Data reported in publication PMC10021052, “Novel multivalent S100A8 inhibitory peptides attenuate tumor progression and metastasis by inhibiting the TLR4-dependent pathway” (Cancer Gene Therapy, 2023).
“Also recorded” adds a separate entry of the source.

Tests used:
[1] = tested on: SW480 cells; experiment: qPCR, S100A8-mediated IL-8 and VEGF mRNA induction in SW480 cells; type: cell-based, human; settings: qPCR, normalized to β-actin
Procedure: SW480 cells were treated with S100A8 in Dulbecco’s Modified Eagle Medium/HamF12 supplemented with 0.1% bovine serum albumin for cytokine induction. Total RNA was extracted using the RNeasy Mini Plus (Qiagen, Hilden, Germany). Complementary DNA was synthesized using the PrimeScript 1st Strand Synthesis kit (Takara Bio, Japan). Quantitative PCR (qPCR) analysis was performed using the PowerUp^TM SYBR^TM Green mixture (Thermo Fisher Scientific) and the StepOnePlus Real Time PCR System (Thermo Fisher Scientific). Gene expression levels were calculated from Ct values, and the relationship between the Ct value and the logarithm of the copy number of a target gene was confirmed to be on a linear line using the corresponding isolated DNA and its serial dilutions as a standard. Thus, the gene expression levels of IL-8 and VEGF were normalized against that of β-actin in each sample. The following primers were used; β-actin, 5′-[…]-3′ and 5′-[…]-3′; IL-8, 5′-[…]-3′ and 5′-[…]-3′; VEGF, 5′-[…]-3′ and 5′-[…]-3′.
(§1) Fig. 2 Identification of S100A8 binding sites to human TLR4/MD-2. […] TLR4/MD-2 recombinant proteins were immobilized to the ELISA plate. After blocking, a full length or deletion mutant of S100A8 was added to the plate. The more detailed methods are described in Materials and Methods. […] B A series of overlapping S100A8 synthetic peptides. The TLR4/MD-2 recombinant proteins were added to each well of peptide immobilized plates. The affinity to TLR4/MD-2 was determined. Data are shown as mean ± SD. C The competitive activity was determined using ELISA. Data are shown as mean ± SD. D The TLR4/MD-2 was mixed with S100A8 with/without the indicated peptides, and immunoprecipitated using an anti-TLR4 antibody. TLR4 or S100A8 was visualized. Similar results were obtained in three independent experiments. […] Total RNAs from SW480 cells with/without treatment of the peptide candidates were extracted and qPCR analysis was performed using relevant primer sets and SYBR green. Relative expression levels were compared. […] TEXT PRINTED IN THE PICTURE: (A) Full length: TLR4/MD-2 binding: + | (A) S100A8-ΔC: TLR4/MD-2 binding: − | (A) S100A8-N: TLR4/MD-2 binding: −
(§2) Fig. 4 Improvement of competitive inhibition activity by divalent peptide3A5. A The binding capacity was measured at the indicated concentration using an ELISA-based assay. Similar results were obtained in three independent experiments. B SW480 cells were pretreated with 2.5 µM of divalent peptide3A5, and then stimulated with human S100A8 recombinant protein. After 30 min, cell lysates were subjected to western blotting using the indicated antibody. The divalent peptide#3 or peptide3A5 reduced the expression of S100A8-mediated IL-8 (C) and VEGF (D) induction. Total RNAs from SW480 cells with/without treatment of the peptide candidates were extracted and qPCR analysis was performed using relevant primer sets and SYBR green. Relative expression levels were compared. Peptide #3 suppresses S100A8-mediated IL-8(E) and VEGF (F) secretion in SW480 cells.

[2] = tested on: S100A8-TLR4/MD-2 complex; experiment: Competitive inhibition of S100A8-TLR4/MD-2 binding (ELISA, S100A8 immobilized; also immunoprecipitation); parameters: species or system human; settings: for competitive inhibition, potency compared with parent: ELISA, peptide3A5 vs peptide #3 (Fig. 3B), divalent vs monomer (Fig. 4A); for competitive inhibitory activity against TLR4/MD-2, peptide3A5-derived peptides: competitive inhibitory assay, Fig. 7B, E, *P < 0.05 vs TLR4/MD-2/S100A8
Procedure: (§3) S100A8 recombinant protein was purified as previously described. These proteins were immobilized on Maxisorp plates (Thermo Fisher Scientific, Waltham, MA, USA), followed by blocking with protein-free blocking buffer (Thermo Fisher Scientific). TLR4/MD-2 recombinant proteins with various concentrations of candidate peptides were then added to the indicated S100A8-immobilized ELISA plates for 2 h. The plates were washed, incubated with anti-TLR4 antibody, and HRP-conjugated secondary antibody, followed by the addition of substrate. The reaction was stopped by addition a 2N H2SO4 solution. Absorbance OD450/OD650 was measured using a microplate reader (Thermo Fisher Scientific). Maxisorp plates were also used for peptide coating. After blocking with protein-free blocking buffer, the coated plates were washed, and TLR4/MD-2 recombinant protein (2 µg/ml) was added to each well. The plates were incubated with a TLR4 antibody followed by horseradish peroxidase (HRP)-labeled anti-rabbit IgG. For detection of IL8 and VEGF in culture supernatants, SW480 cells were pretreated with the indicated peptides, and followed by stimulation with S100A8 for 24 h. The amount of interleukin-8 (IL-8) or VEGF in the supernatants were analyzed by ELISA kits (R&D Systems, Mineapolis, MN) according to the manufacturer’s instructions.
as §1, §2

[3] = tested on: human TLR4/MD-2 complex; experiment: ELISA, TLR4/MD-2 binding to immobilized S100A8-derived peptides (overlapping peptides, alanine scan); settings: alanine scan on peptide #3, compared with parental peptide#3, peptide3A5 *P = 0.013
Procedure: as §3, §1
Fig. 3 Identification of high affinity peptides to TLR4/MD-2 using alanine scanning based on the peptide #3 amino acid sequences. A Lists of peptides used for alanine scanning. […] Similar results were obtained in three independent experiments.

[4] = tested on: PKH26-labeled LLC cells; experiment: Lung dissemination of PKH26-labeled LLC cells in TCM-sensitized mice; type: in vivo, C57BL/6J mice; settings: 10 mg/kg i.p. 1 h before last TCM injection; lungs 16 h after cells; 5–6 mice per group; *P < 0.05 vs control
[5] = tested on: human TLR4/MD-2 complex; experiment: ELISA, S100A8 protein or mutant binding to TLR4/MD-2; settings: recombinant S100A8 full length or mutant
Procedure: as §3
Fig. 2 Identification of S100A8 binding sites to human TLR4/MD-2. […] TLR4/MD-2 recombinant proteins were immobilized to the ELISA plate. After blocking, a full length or deletion mutant of S100A8 was added to the plate. The more detailed methods are described in Materials and Methods. […] B A series of overlapping S100A8 synthetic peptides. The TLR4/MD-2 recombinant proteins were added to each well of peptide immobilized plates. The affinity to TLR4/MD-2 was determined. Data are shown as mean ± SD. C The competitive activity was determined using ELISA. Data are shown as mean ± SD. D The TLR4/MD-2 was mixed with S100A8 with/without the indicated peptides, and immunoprecipitated using an anti-TLR4 antibody. TLR4 or S100A8 was visualized. […]

[6] = tested on: SW480-transplanted xenograft; experiment: Tumor growth in SW480-transplanted xenograft model; type: in vivo, Balb nu/nu mice; settings: SW480 xenograft, various concentrations every 3 days, *P < 0.05 vs control
[7] = tested on: tumor cells and macrophages; experiment: Cytokine/chemokine induction in tumor cells and macrophages; type: cell-based; settings: possible mechanism scheme, Fig. 7I
[8] = molecular target: T1, TLR4/MD-2 complex (Homo sapiens, UniProt O00206+Q9Y6Y9); experiment: Divalent peptide library screening and ILVIK derivatives, binding to TLR4/MD-2 (ELISA); settings: ELISA-based, Fig. 7A, D
T1 construct: TLR4/MD-2 recombinant protein (2 µg/ml) was added to each well
Procedure: Spot synthesis of divalent peptides on a cellulose membrane was performed using a ResPep SL SPOT synthesizer (INTAVIS Bioanalytical Instruments AG, Koeln, Germany) as described previously. Briefly, Fmoc-β-Ala-OH (Watanabe Chemical Industries, Hiroshima, Japan) was used in the first cycle, followed by amino hexanoic acid as a spacer. Fmoc-Lys(Fmoc)-OH (Watanabe Chemical Industries) was used for the next cycle to form two branches in the peptide chain for the subsequent synthesis of the various motifs. The synthesis of each peptide was confirmed by staining the membrane using bromophenol blue (1% in N, N′-dimethylformamide), which reacts with free amino residues. Free amino residues are produced only after the completion of all reactions and before deprotection of the side chain residues. […]
S100A8 recombinant protein was purified as previously described. […] Absorbance OD450/OD650 was measured using a microplate reader (Thermo Fisher Scientific). […] The amount of interleukin-8 (IL-8) or VEGF in the supernatants were analyzed by ELISA kits (R&D Systems, Mineapolis, MN) according to the manufacturer’s instructions.
Fig. 7 Isolation of multivalent S100A8 inhibitory peptides using divalent peptide libraries based on the sequences of peptide3A5. […] The binding affinities to TLR4/MD-2 complex were determined using an ELISA-based assay. […]

[9] = molecular target: tetravalent ILVIK (human); experiment: ELISA; tetravalent ILVIK immobilised; after blocking TLR4/MD-2 proteins added at various concentrations (Fig. 7F)
[10] = tested on: mouse TLR4/MD-2 complex; settings: ref [8]; cited from earlier work
[11] = tested on: SW480 cells; experiment: ELISA, IL-8 and VEGF secretion of SW480 cells; type: cell-based, human; settings: SW480 cells; data not shown
Procedure: as §3

T1 sequence (O00206 24-631 limits assumed): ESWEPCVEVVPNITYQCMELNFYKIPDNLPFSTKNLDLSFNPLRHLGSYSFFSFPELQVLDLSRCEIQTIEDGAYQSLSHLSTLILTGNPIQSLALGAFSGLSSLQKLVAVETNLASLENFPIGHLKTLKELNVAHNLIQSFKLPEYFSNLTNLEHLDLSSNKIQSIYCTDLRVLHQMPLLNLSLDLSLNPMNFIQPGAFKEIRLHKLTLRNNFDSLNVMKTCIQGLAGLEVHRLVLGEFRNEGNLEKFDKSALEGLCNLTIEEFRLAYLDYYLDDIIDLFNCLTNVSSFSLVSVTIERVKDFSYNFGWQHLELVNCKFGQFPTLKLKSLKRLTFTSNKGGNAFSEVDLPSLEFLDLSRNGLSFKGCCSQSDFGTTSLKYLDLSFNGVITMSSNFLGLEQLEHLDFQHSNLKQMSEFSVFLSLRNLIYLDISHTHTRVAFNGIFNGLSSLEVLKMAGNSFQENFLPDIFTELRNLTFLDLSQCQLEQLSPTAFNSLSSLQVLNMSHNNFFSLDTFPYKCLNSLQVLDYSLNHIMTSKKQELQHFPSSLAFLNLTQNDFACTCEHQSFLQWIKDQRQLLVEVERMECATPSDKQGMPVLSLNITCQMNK
T1 sequence (Q9Y6Y9 17-160 partner limits assumed): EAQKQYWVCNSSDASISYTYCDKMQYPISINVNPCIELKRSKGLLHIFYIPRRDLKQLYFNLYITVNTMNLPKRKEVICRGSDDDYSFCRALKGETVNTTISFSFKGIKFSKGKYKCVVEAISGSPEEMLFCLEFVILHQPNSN

## FQEFAILVIK [peptide3A5]
[1]
  S100A8-mediated VEGF induction (mRNA): reduced
[1]; *P < 0.05 vs S100A8
  S100A8-mediated IL-8 induction (mRNA): reduced
[2]
  competitive inhibition, potency compared with parent: competed with the S100A8-TLR4/MD-2 complex at a lower dose than peptide #3
[2]; listed as Peptide3A5
  competitive inhibition, potency compared with parent: more potent for competitive inhibition on S100A8-TLR4/MD-2 complex than peptide #3
[3]
  affinity for TLR4/MD-2, alanine scanning: increased the affinity for TLR4/MD-2
[3]; listed as Peptide3A5
  affinity for TLR4/MD-2, alanine scanning: increased binding affinity to TLR4/MD-2
[4]
  pulmonary recruitment of PKH26-labeled LLC cells / lung metastasis: suppressed the pulmonary recruitment of tumor cells

## human S100A8: full length human S100A8 recombinant protein
[5]
  binding to human TLR4/MD-2 (in words): binds to human TLR4/MD-2 complex

## ILVIK [Divalent ILVIK, divalent peptide with two ILVIK motifs on a monolysine core, N-terminus acetylated]
[6]
  tumor growth, multivalent ILVIK: inhibits tumor growth
[6]; listed as divalent ILVIK
  tumor growth, multivalent ILVIK: inhibited tumor growth in subcutaneously transplanted SW480 cells in a dose-dependent manner
[2]; listed as deletion mutant of the FQEFA amino acid sequences
  competitive inhibitory activity against TLR4/MD-2, peptide3A5-derived peptides: sustained the competitive inhibitory activity
[2]; listed as divalent ILVIK
  competitive inhibitory activity against TLR4/MD-2, peptide3A5-derived peptides: candidate inhibitor; also recorded: competitively inhibited S100A8 binding to TLR4/MD-2
[7]
  induction of cytokines/chemokines: suppress the induction of cytokines/chemokines in both tumor cells and macrophages

## Lys77: peptide #3 with substitution of Lys77 with alanine (FQEFLILVIA)
[3]
  affinity for TLR4/MD-2, alanine scanning: diminished the S100A8 activity of TLR4/MD-2 binding

## ILVIK [monomeric ILVIK, monovalent ILVIK peptide, N-terminus acetylated]
[8]
  binding to TLR4/MD-2, peptide3A5-derived peptides: did not perform these activities
[2]
  competitive inhibitory activity against TLR4/MD-2, peptide3A5-derived peptides: did not perform these activities; also recorded: failed to obtain the competitive inhibitory activities against the TLR4/MD-2 complex

## FQEFA [FQEFA dimer, dimer of FQEFA, peptide3A5 with the last five amino acids deleted]
[8]
  binding to TLR4/MD-2, peptide3A5-derived peptides: diminished the capacity of binding to TLR4/MD-2

## human TLR4/MD-2 complex (from UniProt O00206 24-839; Q9Y6Y9 19-160)
[9]
  Kd: 4.58 to 8.78 nM

B1: mouse S100A8: mouse S100A8 protein (protein, UniProt P27005 2-89, looked up)
Protein S100-A8: PSELEKALSNLIDVYHNYSNIQGNHHALYKNDFKKMVTTECPQFVQNINIENLFRELDINSDNAINFEEFLAMVIKVGVASHKDSHKE
[10]
  binding to mouse TLR4/MD-2: binds to the mouse TLR4/MD-2 complex via the carboxyl-terminal region

B2: S100A8-Lys77Ala: S100A8-Lys77Ala recombinant protein (protein)
chain: MLTELEKALNSIIDVYHKYSLIKGNFHAVYRDDLKKLLETECPQYIRKKGADVWFKELDINTDGAVNFQEFLILVIAMGVAAHKKSHEESHKE
[11]
  IL-8 production, S100A8 mutant: had no effect on IL-8 production
[5]
  binding to human TLR4/MD-2 (in words): hardly bound to the TLR4/MD-2 complex
[5]; listed as S100A8Lys77Ala
  binding to human TLR4/MD-2 (in words): decreased affinity to TLR4/MD-2
